Values after ≈ are worked out from the molar mass of the structure shown. Like-named read-outs stand apart in the source and are kept apart here. Each block holds one compound with its values, some of them ahead of it.
Tests used:
rat [1] = settings: in vivo; cited from earlier work
rat [2] = settings: cited from earlier work
Pka determination = format: physicochemical
[3] = Half life (t1/2) in acidic and basic PH conditions; format: physicochemical; settings: buffer
[4] = Solubility in various PH medium; format: physicochemical; settings: media of various pH, aqueous buffer
Solubility in PG = format: physicochemical; settings: organic solvent or mixture
[5] = Stability in aqueous (PH1 and 14) tested by 3% hydrogen peroxide; format: physicochemical
[6] = Hygroscopicity (moisture sorption); format: physicochemical

Compound: CN1CCCC1=O [N-methylpyrrolidone]
LD50 (skin) (rat [1]): 7 g/KG bodyweight

Compound: Polysorbate80
LD50 (Rat-Oral) (rat [2]): 34.5 ml/kg bodyweight

pKa (Pka determination): 11.3
solubility (Solubility in water; water): 24.5 µg/mL (≈ 105 µM)
half-life ([3]; pH 1, PH1, read-out: t1/2 (days) PH1 (converted)): 51 days
half-life ([3]; pH 11, PH11, read-out: t1/2 (days) PH11 (converted)): 57 days
solubility ([4]; in PH1-11, read-out: Solubility (μg/ml) in various PH medium): 19.3 to 27.5 µg/mL (≈ 83.1 to 118 µM)
solubility (Solubility in PG): > 5100 µg/mL
logP (Log P (Octanol/water); octanol/water): 2.9 to 3.12
Compound: Cc1cccc(C(C)c2c[nH]c(=S)[nH]2)c1C (stereo not drawn) [AGN 203818]

Compound: CC12CC3CC(C)(C1)CC(N)(C3)C2.Cl [Memantine HCl]
pKa (Pka determination): 10.5
PH of 1% aqueous solution (Solubility in water; 1% aqueous solution): (PH 5.5-6)
solubility at 24 hr (Solubility in water; water): 45000 µg/mL
Stability in aqueous (PH1 and 14) tested by 3% hydrogen peroxide ([5]; PH1 and 14, 3% hydrogen peroxide): Stable
stability in both acidic and basic pH conditions ([5]; acidic and basic pH): high stability
solubility ([4]; in PH 2-8, read-out: Solubility in various PH medium): > 1200 µg/mL
Hygroscopicity [6]: Slightly hygroscopic
moisture sorption ([6]; at 5-95% RH): (<1.1% moisture
Log P (Octanol/water) (Log P (Octanol/water)): 3.28

Source: patent US20080107719A1, “Transdermal drug delivery system” (priority 2006, published 2008)
